Experimental data: patent publication US20240216357A1 (SICHUAN HUIYU PHARMACEUTICAL CO., LTD., priority 2021, published 2024)
Counter-ions that a name gives are not always drawn. Like-named read-outs stand apart in the source and are kept apart here.

Experiments:
[1] = molecular target: LSD1 (Homo sapiens (Human), UniProt O60341); assay: LSD1 enzyme activity detection (HTRF); assay type: biochemical
[2] = test system: NCI-H1417 cells; assay: In vitro cell proliferation detection (CellTiter-Glo, 7 days); assay type: cell-based
[3] = read-out: Inhibition of enzymatic activity of LSD1 IC50
[4] = Homo sapiens, 168 h, NCI-H1417 cells, 7 days, CellTiter-Glo, read-out: NCI-H1417 proliferation inhibition IC50
[5] = HTRF, H3K4me1 substrate, read-out: Inhibition of enzymatic activity of LSD1 IC50

Compound | IC50 [2, 4] [nM] | IC50 [1, 5] [nM] | further results
Cc1ccc(-c2sc(CN3C4CCC3CC(N)C4)cc2-c2ccc(C#N)c(F)c2)c(F)c1 (centres unmarked) [Example 7, 4-(5-((3-amino-8-azabicyclo[3.2.1]octane-8-yl)methyl)-2-(2-fluoro-4-methylphenyl)thiophen-3-yl)-2-fluorobenzonitrile trifluoroacetate] | 46.4 | – | IC50 [1]: 0.4 ± 0.29 nM
COc1ccc(-c2c(OC)cc(N3CCC(N)CC3)nc2-c2ccc(C#N)c(F)c2)cc1C#N [Example 93, 4-(6-(4-aminopiperidin-1-yl)-3-(3-cyano-4-methoxyphenyl)-4-methoxypyridin-2-yl)-2-fluorobenzonitrile] | 30.7 | 153 | –
COc1cc(N2CCC(N)CC2)nc(-c2ccc(C#N)c(F)c2)c1-c1ccc(C#N)c(F)c1 [Example 94, 4,4′-(6-(4-aminopiperidin-1-yl)-4-methoxypyridin-2,3-diyl)bis(2-fluorobenzonitrile)] | 104 | 24.9 | –
COc1ccc(-c2cnc(N3CCC(N)CC3)c(C#N)c2-c2ccc(C#N)c(F)c2)cc1 [Example 69, 2-(4-aminopiperidin-1-yl)-4-(4-cyano-3-fluorophenyl)-5-(4-methoxyphenyl) nicotinonitrile hydrochloride] | 8.41 | 3.9 ± 2.7 | –
N#Cc1ccc(-c2nc(N3CCC(N)CC3)cc(O)c2-c2ccc(C#N)c(F)c2)cc1F [Example 48, 4,4′-(6-(4-aminopiperidin-1-yl)-4-hydroxypyridine-2,3-diyl)bis(2-fluorobenzonitrile)] | 290 | 57.8 | –
CS(=O)(=O)N1CCN(C(=O)c2cc(CN[C@@H]3C[C@H]3c3ccc(F)cc3)nc(-c3ccccc3)n2)CC1 [Example 1] | – | 186 ± 69.6 | IC50 ([2]; NCI-H1417 cells, 7 days, CellTiter-Glo, read-out: NCI-H1417 proliferation inhibition IC50): 11.3 nM
Cc1ccc(-c2cnc(N3CCC(N)CC3)c(C#N)c2-c2ccc(C#N)c(F)c2)cc1F [Example 72, 2-(4-aminopiperidin-1-yl)-4-(4-cyano-3-fluorophenyl)-5-(3-fluoro-4-methylphenyl) nicotinitrile] | 12.2 | 6.6 ± 1 | –
COc1ccc(-c2c(OCC3CC3)cc(N3CCC(N)CC3)nc2-c2ccc(C#N)c(F)c2)cc1O [Example 108, 4-(6-(4-aminopiperidin-1-yl)-4-(cyclopropylmethoxy)-3-(3-hydroxy-4-methoxyphenyl)pyridin-2-yl)-2-fluorobenzonitrile hydrochloride] | 4.02 | 1.5 ± 0.7 | –
CCCCCc1noc2cc(-c3sc(C(=O)N4C5CCC4CC(N)C5)cc3-c3ccc(C#N)c(F)c3)c(F)cc12 (centres unmarked) [Example 8, 4-(5-(3-amino-8-azabicyclo[3.2.1]octane-8-carbonyl)-2-(5-fluoro-3-pentylbenzo[d]isoxazol-6-yl)thiophen-3-yl)-2-fluorobenzonitrile] | 6.94 | 0.3 ± 0.04 | –
CC(C)(O)Cc1ccc(-c2c(O)cc(N3CCC(N)CC3)nc2-c2ccc(C#N)c(F)c2)cc1F [Example 39, 4-(6-(4-aminopiperidin-1-yl)-3-(3-fluoro-4-(2-hydroxy-2-methylpropyl)phenyl)-4-hydroxypyridin-2-yl)-2-fluorobenzonitrile hydrochloride] | 121 | 21.5 ± 7.6 | –
N#Cc1ccc(-c2nc(N3CCC(N)CC3)cc(O)c2-c2ccc(N3CCOCC3)cc2)cc1F [Example 21, 4-(6-(4-aminopiperidin-1-yl)-4-hydroxy-3-(4-morpholinophenyl)pyridin-2-yl)-2-fluorobenzonitrile hydrochloride] | 38.7 | 10.5 | –
N#Cc1ccc(-c2cc(C(=O)N3C4CCC3CC(N)C4)sc2-c2ccncn2)cc1F (centres unmarked) [Example 202, 4-(5-(3-amino-8-azabicyclo [3.2.1]octane-8-carbonyl)-2-(pyrimidin-4-yl)thiophen-3-yl)-2-fluoro-benzonitrile hydrochloride] | > 1000 | 77.1 | –
Cc1ccc(-c2cnc(N3CCC(N)CC3)c(C#N)c2-c2ccc(C#N)c(F)c2)cc1O [Example 67, 2-(4-aminopiperidin-1-yl)-4-(4-cyano-3-fluorophenyl)-5-(3-hydroxy-4-methylphenyl) nicotinonitrile hydrochloride] | 0.2 | 0.2 ± 0.1 | –
COc1ccc(-c2cnc(N3CC4CCC3CC4N)c(C#N)c2-c2ccc(C#N)c(F)c2)cc1O (centres unmarked) [Example 76, 2-(5-amino-2-azabicyclo[2.2.2]octane-2-yl)-4-(4-cyano-3-fluorophenyl)-5-(3-hydroxy-4-methoxyphenyl) nicotinonitrile] | 1.37 | 4.9 ± 2.5 | –
N#Cc1ccc(-c2cc(C(=O)N3C4CCC3CC(N)C4)sc2-c2ccc3oc(=O)[nH]c3c2)cc1F (centres unmarked) [Example 214, 4-(5-(3-amino-8-azabicyclo [3.2.1]octan-8-carbonyl)-2-(2-carbonyl-2,3-dihydrobenzo[d]oxazol-5-yl)thiophen-3-yl)-2-fluoro benzonitrile hydrochloride] | 493 | 0.47 ± 0.13 | –
CN(CCCN)c1cc(O)c(-c2ccc(Cl)c(O)c2)c(-c2ccc(C#N)c(F)c2)n1 [Example 61, 4-(6-((3-aminopropyl)(methyl)amino)-3-(4-chloro-3-hydroxyphenyl)-4-hydroxypyridin-2-yl)-2-fluorobenzonitrile] | 387 | 26.4 | –
Cc1ccc(-c2sc(C(=O)N3C4CCC3CC(N)C4)cc2-c2ccc(C#N)c(F)c2)c(F)c1 (centres unmarked) [Example 6, 4-(5-(3-amino-8-azabicyclo[3.2.1]octane-8-carbonyl)-2-(2-fluoro-4-methylphenyl)thiophen-3-yl)-2-fluorobenzonitrile hydrochloride] | 3.64 | 0.3 ± 0.25 | –
COc1ccc(-c2c(O)cc(N3C4CCC3CC(N)C4)nc2-c2ccc(C#N)c(F)c2)cc1F (centres unmarked) [Example 14, 4-(6-(3-amino-8-azabicyclo[3.2.1]octane-8-yl)-3-(3-fluoro-4-methoxyphenyl)-4-hydroxypyridin-2-yl)-2-fluorobenzonitrile] | 64.9 | 13.8 | –
5′-(4-aminopiperidin-1l-yl)-3-fluoro-3′,3′-dihydroxy-4′-methyl-[1,1′:2′,1′-triphenyl]-4-carbonitrile [Example 266] | – | – | IC50 [1, 3]: 0.7 ± 0.004 nM; IC50 ([2]; read-out: NCI-H1417 proliferation inhibition IC50): 0.48 nM
CCOc1cc(N2CCC(N)CC2)nc(-c2ccc(C#N)c(F)c2)c1-c1ccc(OC)c(O)c1 [Example 103, 4-(6-(4-aminopiperidin-1-yl)-4-ethoxy-3-(3-hydroxy-4-methoxyphenyl)pyridin-2-yl)-2-fluorobe nzonitrile] | – | – | IC50 [1, 3]: 0.6 ± 0.2 nM; IC50 ([2]; Homo sapiens, NCI-H1417, 168 h, read-out: NCI-H1417 proliferation inhibition IC50(nM)): 6.27 nM

Further lines, with some results ahead:

IC50 [2, 4] [nM] | IC50 [1, 5] [nM] | Compound | further results
> 1000 | – | CNC1CCCN(c2nc(OC)c(-c3ccc(OC)c(F)c3)c(-c3ccc(C#N)c(F)c3)n2)C1 (centres unmarked) [Example 114, 2-fluoro-4-(5-(3-fluoro-4-methoxyphenyl)-6-methoxy-2-(3-(methylamino)piperidin-1-yl)pyrimidin-4-yl)benzonitrile hydrochloride] | IC50 [1, 3]: 67 nM
12.8 | 33.2 | Cc1noc2cc(-c3c(-c4ccc(C#N)c(F)c4)nc(N4CCC(C)(N)CC4)n4ccnc34)c(F)cc12 [Example 149, 4-(5-(4-amino-4-methylpiperidin-1-yl)-8-(5-fluoro-3-methylbenzo [d]isoxazol-6-yl)imidazolo[1,2-c]pyrimidin-7-yl)-2-fluorobenzonitrile] | –
6.51 | 65.8 | COc1ccc(-c2nc(CN[C@@H]3C[C@H]3c3ccc(F)cc3)cc(C(=O)N3CCC(F)(F)CC3)n2)cc1O [Example 247] | –
8.37 | 3.9 ± 0.2 | COc1ccc(-c2c(-c3ccc(C#N)c(F)c3)nc(N3CC4CCC(C3)C4N)n3ccnc23)cc1O (centres unmarked) [Example 161, 4-(5-(8-amino-3-azabicyclo[3. 2.1]octane-3-yl)-8-(3-hydroxy-4-methoxyphenyl)imidazolo[1,2-c]pyrimidin-7-yl)-2-fluorobenzonitrile hydrochloride] | –
31.6 | 5.2 ± 0.5 | CN(CCCN)c1nc(-c2ccc(C#N)c(F)c2)c(-c2ccc(OC(F)(F)F)c(O)c2)c2nccn12 [Example 153, 4-(5-((3-aminopropyl) (methyl)amino)-8-(3-hydroxy-4-(trifluoromethoxy)phenyl)imidazolo [1,2-c]pyrimidin-7-yl)-2-fluorobenzonitrile] | –
11 | 1.8 ± 0.8 | Cc1noc2cc(-c3c(-c4ccc(C#N)c(F)c4)nc(N4CCC(N)CC4)c4nc[nH]c34)c(F)cc12 [Example 272, 4-(4-(4-aminopiperidin-1-yl)-7-(5-fluoro-3-methylbenzo[d]isoxazol-6-yl)-1H-imidazolo[4,5-c]pyridin-6-yl)-2-fluorobenzonitrile] | –
209 | 548 | CS(=O)(=O)N1CCN(C(=O)c2cc(CN[C@@H]3C[C@H]3c3ccc(F)cc3)nc(-c3ccn4ccnc4c3)n2)CC1 [Example 232] | –
4.82 | 5.5 ± 2.9 | COc1ccc(-c2c(-c3ccc(C#N)c(F)c3)nc(N3CCC(C)(N)CC3)n3ccnc23)cc1O [Example 143, 4-(5-(4-amino-4-methylpiperidin-1-yl)-8-(3-hydroxy-4-methoxyphenyl)imidazolo[1,2-c]pyrimidin-7-yl)-2-fluorobenzonitrile] | –
1.11 | 15.8 | O=C(NC1CCOCC1)c1cc(CN[C@@H]2C[C@H]2c2ccc(F)cc2)nc(-c2ccc(-n3ccnn3)cc2)n1 [Example 249] | –
3.6 | 0.94 | Cc1noc2cc(-c3c(C#N)cc(N4CCC(N)CC4)nc3-c3ccc(C#N)c(F)c3)c(F)cc12 [Example 275, 6-(4-aminopiperidin-1-yl)-2-(4-cyano-3-fluorophenyl)-3-(5-fluoro-3-methylbenzo[d]isoxazol-6-yl)isonionitrile] | –
18.3 | 13.2 | COc1ccc(-c2c(-c3ccc(C#N)c(F)c3)nc(N3CC4CCC3CC4N)n3ccnc23)cc1F (centres unmarked) [Example 170, 4-(5-(5-amino-2-azabicyclo[2.2.2]octane-2-yl)-8-(3-fluoro-4-methoxyphenyl)imidazolo[1,2-c]pyrimidin-7-yl)-2-fluorobenzonitrile hydrochloride] | –
